“And” between values parts separate entries of the source, which are not always exact repeats. Identical values can stand only once.
What was measured:
Botrytis cinerea = test: in vitro-Test with Botrytis cinerea (microtiter growth inhibition); format: cell-based
Description: (§1) The degree of efficacy expressed in % is denoted: 0% means an efficacy, which corresponds to that of the control, while an efficacy of 100% means that no disease is observed.
(§2) If the actual fungicidal activity exceeds the calculated value, then the activity of the combination is super-additive, i.e. a synergistic effect exists. In this case, the efficacy, which was actually observed, must be greater than the value for the expected efficacy (E), that was calculated from the abovementioned formula.
(§3) Example: In Vitro-Test with Fungal Microorganisms
(§4) Wells of 96-well microtiter plates are filled with 10 μl of a preparation of test compound or compound combination in methanol+emulsifier alkylaryl-polyglycol-ether. Thereafter, the solvent is evaporated in a hood. At the next step, 100 μl of liquid potato dextrose medium is given into each well, that has been amended with an appropriate concentration of spores or mycelium suspension of the test fungus.
(§5) With the aid of a photometer, the extinction in all wells is measured at the wavelength of 620 nm.
(§6) The microtiter plates are incubated at 20° C. and 85% relative humidity. The inhibition of growth is determined again photometrically 3-5 days after the application. Efficacy is calculated in relation to the untreated control, 0% efficacy means fungal growth as high as in untreated control while 100% efficacy means no fungal growth is measured.

Parastagonospora nodorum = test: in vitro-Test with Parastagonospora nodorum (microtiter growth inhibition); format: cell-based; conditions: compound alone
Description: as §1, §2, §3, §4, §5, §6

Alternaria alternate = test: in vitro-Test with Alternaria alternate (microtiter growth inhibition); format: cell-based; conditions: applied alone
Description: as §1, §2, §3, §4, §5, §6

Diaporthe citri = test: in vitro-Test with Diaporthe citri (microtiter growth inhibition); format: cell-based; conditions: applied alone
Description: as §2, §3, §4, §5, §6

[1] = Measurement of Log P values by HPLC on reversed phase columns (EEC directive 79/831 Annex V.A8), methods [a], [b], [c]; format: physicochemical
Description: Measurement of Log P values as provided herein was performed according to EEC directive 79/831 Annex V.A8 by HPLC (High Performance Liquid Chromatography) on reversed phase columns with the following methods: • ^[a]

[2] = Parastagonospora nodorum, read-out: Efficacy %
[3] = Parastagonospora nodorum, 20 ppm, read-out: Efficacy %

Cc1ccc(C(F)(F)CNC(=O)c2c(Oc3cccc(C4CC4)c3F)nnc(Cl)c2C)c(C)c1 [(1-655)]
Efficacy % (Botrytis cinerea; single active at 0.004 ppm): 0%
Efficacy % (Botrytis cinerea; single active at 0.020 ppm): 0%
Efficacy % (Botrytis cinerea; single active at 0.1 ppm): 58%
Efficacy % (Botrytis cinerea; single active at 0.5 ppm): 100%

Cc1ccc(C(F)(F)CNC(=O)c2c(Oc3cccc(C4CC4)c3F)nnc(Cl)c2C)c(Cl)c1 [(1-746)]
Efficacy % (Botrytis cinerea; single active at 0.004 ppm): 0%
Efficacy % (Botrytis cinerea; single active at 0.020 ppm): 0%
Efficacy % (Botrytis cinerea; single active at 0.1 ppm): 38%
Efficacy % (Botrytis cinerea; single active at 0.5 ppm): 100%

Cc1ccc(C(F)(F)CNC(=O)c2c(Oc3cccc(C4CC4)c3F)nnc(Cl)c2C)cc1C [(1-749)]
Efficacy % (Botrytis cinerea; single active at 0.004 ppm): 0%
Efficacy % (Botrytis cinerea; single active at 0.020 ppm): 0%
Efficacy % (Botrytis cinerea; single active at 0.1 ppm): 45%
Efficacy % (Botrytis cinerea; single active at 0.5 ppm): 99%

CCCN(CC)CC1COC2(CCC(C(C)(C)C)CC2)O1 (centres unmarked) [(1.020) spiroxamine]
inhibition of growth at 0.8 ppm (Parastagonospora nodorum; [2]): 6%
inhibition of growth at 4 ppm (Parastagonospora nodorum; [2]): 0%
inhibition of growth at 20 ppm (Parastagonospora nodorum; [3]): 0%
inhibition of growth at 20 ppm (Botrytis cinerea; Botrytis cinerea, single active at 20 ppm, read-out: Efficacy %): 15%

Cn1cc(C(=O)Nc2ccc(F)cc2-c2ccc(Cl)c(Cl)c2)c(C(F)F)n1 [(2.002) bixafen]
Efficacy % (Parastagonospora nodorum; 0.04 ppm): 3%
Efficacy % (Botrytis cinerea; single active at 0.008 ppm): 9%
Efficacy % (Botrytis cinerea; single active at 0.04 ppm): 42%
Efficacy % (Botrytis cinerea; single active at 0.2 ppm): 55% and 67%
Efficacy % (Botrytis cinerea; single active at 1.0 ppm): 67% and 73%

C[C@@H]1CC(C)(C)c2c(F)ccc(NC(=O)c3cn(C)nc3C(F)F)c21 [(2.028) inpyrfluxam]
Efficacy % (Parastagonospora nodorum; 0.008 ppm): 0%
Efficacy % (Parastagonospora nodorum; 0.04 ppm): 23%
Efficacy % (Parastagonospora nodorum; 0.2 ppm): 33%
Efficacy % (Parastagonospora nodorum; 1.0 ppm): 33%
Efficacy % (Botrytis cinerea; single active at 0.008 ppm): 0%
Efficacy % (Botrytis cinerea; single active at 0.04 ppm): 48% and 55%
Efficacy % (Botrytis cinerea; single active at 0.2 ppm): 60% and 66%
Efficacy % (Botrytis cinerea; single active at 1.0 ppm): 63% and 91%

O=C1C2CC=CCC2C(=O)N1SC(Cl)(Cl)Cl (centres unmarked) [(5.003) captan]
inhibition of growth at 4 ppm (Parastagonospora nodorum; [2]): 54%
inhibition of growth at 20 ppm (Parastagonospora nodorum; [3]): 100%
inhibition of growth at 4 ppm (Botrytis cinerea; Botrytis cinerea, single active at 4 ppm, read-out: Efficacy %): 20%

O=C1c2ccccc2C(=O)N1SC(Cl)(Cl)Cl [(5.012) folpet]
inhibition of growth at 2 ppm (Parastagonospora nodorum; Parastagonospora nodorum, 2 ppm, read-out: Efficacy %): 91%
inhibition of growth at 10 ppm (Parastagonospora nodorum; Parastagonospora nodorum, 10 ppm, read-out: Efficacy %): 100%
inhibition of growth at 0.08 ppm (Botrytis cinerea; Botrytis cinerea, single active at 0.08 ppm, read-out: Efficacy %): 0%
inhibition of growth at 0.4 ppm (Botrytis cinerea; Botrytis cinerea, single active at 0.4 ppm, read-out: Efficacy %): 2%
Efficacy % (Botrytis cinerea; single active at 0.4 ppm): 0%

Cc1cc(C)nc(Nc2ccccc2)n1 [(7.005) pyrimethanil]
inhibition of growth at 0.8 ppm (Parastagonospora nodorum; [2]): 99%
inhibition of growth at 4 ppm (Parastagonospora nodorum; [2]): 100%
Efficacy % (Parastagonospora nodorum; 20 ppm): 100%
inhibition of growth at 0.8 ppm (Botrytis cinerea; Botrytis cinerea, single active at 0.8 ppm, read-out: Efficacy %): 78%

CC1CC(C)(C)c2c(F)ccc(NC(=O)c3cn(C)nc3C(F)F)c21 (centres unmarked) [Compound 2.028, inpyrfluxam]
Efficacy (Alternaria alternate; 0.008 ppm): 0%
Efficacy (Alternaria alternate; 0.04 ppm): 57%
Efficacy (Alternaria alternate; 0.2 ppm): 73%
Efficacy (Alternaria alternate; 1.0 ppm): 79%
Efficacy (Diaporthe citri; 0.008 ppm): 0% and 7%
Efficacy (Diaporthe citri; 0.04 ppm): 23%
Efficacy (Diaporthe citri; 0.2 ppm): 47% and 32%
Efficacy (Diaporthe citri; 1.0 ppm): 92% and 94%

O=C(NCCc1ccc(C(F)F)cc1)c1cc(Cl)nnc1Oc1cccc(C(F)(F)F)c1 [I-309]
LogP ([1]; HPLC method [a]): 3.78^[a]

O=C(NCC(F)(F)c1ccc(Br)cc1Cl)c1cc(C2CC2)nnc1Oc1cccc(C(F)(F)F)c1 [I-312]
LogP ([1]; HPLC method [a]): 4.79^[a];

O=C(NCC(F)(F)c1ccc(Br)cc1Cl)c1cc(Cl)nnc1Oc1cccc(C(F)(F)F)c1F [I-315]
LogP ([1]; HPLC method [a]): 4.71^[a]

Cc1ccc(C(F)(F)CNC(=O)c2cc(-c3ccncc3)nnc2Oc2cccc(C(F)(F)F)c2)c(C)c1 [I-316]
LogP ([1]; HPLC method [a]): 3.65^[a]

Cc1c(Cl)nnc(Oc2cccc(C(F)(F)F)c2)c1C(=O)NCC(F)(F)c1ccc(Cl)cc1Cl [I-338]
LogP ([1]; HPLC method [a]): 4.43^[a]

Cc1ccc(CCNC(=O)c2cc(Cl)nnc2Oc2cccc(C(F)(F)F)c2)c(-c2nccn2C)c1 [I-341]
LogP ([1]; HPLC method [a]): 1.85^[a]

O=C(NCC(F)(F)c1ccc(C2CC2)cc1Cl)c1cc(Cl)nnc1Oc1cccc(C(F)(F)F)c1 [I-360]
LogP ([1]; HPLC method [a]): 4.58^[a]

O=C(NCc1cncc2ccccc12)c1cc(Cl)nnc1Oc1cccc(C(F)(F)F)c1 [I-379]
LogP ([1]; HPLC method [a]): 2.14^[a]

Cc1cc(Br)ccc1C(F)(F)CNC(=O)c1cc(Cl)nnc1Oc1cccc(C(F)(F)F)c1 [I-404]
LogP ([1]; HPLC method [a]): 4.57^[a]

Cc1ccc(C(F)(F)CNC(=O)c2cc(C)nnc2Oc2cccc(C(F)(F)F)c2)c(C)c1 [I-411]
LogP ([1]; HPLC method [a]): 4.00^[a]

O=C(NCC(F)(F)c1ccc(C(F)(F)F)cc1Cl)c1cc(Cl)nnc1Oc1cccc(C(F)(F)F)c1 [I-418]
LogP ([1]; HPLC method [a]): 4.45^[a]

CCSc1c(Cl)nnc(Oc2cccc(C(F)(F)F)c2)c1C(=O)NCC(F)(F)c1ccc(C)cc1C [I-442]
LogP ([1]; method [a]): 4.87^[a]

O=C(NCC(F)(F)c1ccc(Cl)cc1Br)c1cc(Cl)nnc1Oc1cccc(C(F)(F)F)c1 [I-478]
LogP ([1]; method [a]): 4.68^[a]

COc1ccc(CCNC(=O)c2c(Oc3cccc(C(F)(F)F)c3)nnc(Cl)c2C)c(OC)c1 [I-500]
LogP ([1]; method [a]): 3.65^[a]

Cc1ccc(C(F)(F)CNC(=O)c2cc(-c3cn[nH]c3)nnc2Oc2cccc(C(F)(F)F)c2)c(C)c1 [I-515]
LogP ([1]; method [a]): 3.65^[a]

Cc1cc(C(=O)NCCc2ccc(C(F)F)cn2)c(Oc2cccc(C(F)(F)F)c2)nn1 [I-525]
LogP ([1]; method [a]): 2.57^[a];

Reference: US20230165252A1, “ACTIVE COMPOUND COMBINATIONS” (Bayer Aktiengesellschaft, priority 2020, published 2023)
